Source: a melting point compilation (Tetko et al.)

| melting point [°C] | SMILES |
| --- | --- |
| 115 to 117 | O=[N+]([O-])c1ccc2oc(CCl)nc2c1 |
| 199 to 201 | COc1ccc(Cl)cc1/C=C/C(=O)O |
| 96 to 98 | CNc1ccccc1S(C)(=O)=O |
| 103 to 105 | Clc1ccc(C2CC2)nn1 |
| 153 to 155 | CNC(C(N)=O)c1cccc(F)c1 (stereo not given) |
| 162 to 164 | O=C(O)c1cc([N+](=O)[O-])cc(S(=O)(=O)Cl)c1 |
| 166 to 168 | O=C(O)Cc1coc(-c2ccc(F)cc2)n1 |
| 76 to 78 | Oc1ccccc1-c1nc(CCl)no1 |
| 118 to 120 | CCC(=O)N1CCC(C(=O)O)C1 (stereo not given) |
| 84 to 86 | Nc1ccccc1-n1cnnn1 |
| 73 to 75 | CN(CCO)C1(CN)CCCCC1 |
| 58 to 60 | COC(=O)c1cc(C)ccc1N |
| 239 to 241 | CC(=O)c1cc(C(=O)O)ccc1O |
| 115 to 117 | O=C(O)CSc1ccccc1Cl |
| 150 to 152 | CN(C)S(=O)(=O)c1ccc(N)nc1 |
| 66 to 68 | CCOC(=O)C=Cc1ccc2c(c1)OCO2 |
| 221 to 223 | O=c1[nH]c(-c2ncccn2)no1 |
| 87 to 89 | Nc1cccc(Cl)c1Sc1ccccn1 |
| 58 to 60 | COc1cc(C(C)=O)ccc1S |
| 264 to 266 | O=C1Nc2cc(Cl)ccc2C1=O |
| 104 to 106 | Nc1ccc2nc(Cc3ccccc3)oc2c1 |
| 89 to 91 | COC(=O)Nc1ccc(N)cc1 |
| 226 to 228 | CCOC(=O)c1c(N)n(CCO)c2nc3ccccc3nc12 |

| melting point [°C] | SMILES |
| --- | --- |
| 97 to 99 | Cc1ccccc1-c1cc(N)n(C)n1 |
| 56 to 58 | COC(=O)c1ccc(Cl)nc1Cl |
| 220 to 222 | O=C(CC(=O)Nc1ccccc1)Nc1ccccc1 |
| 47 to 49 | CC(N)c1ccc(-c2cccnc2)cc1 (stereo not given) |
| 180 to 182 | Nc1nc(-c2ccc3c(c2)OCCO3)cs1 |
| 165 to 167 | CN1CCc2ccc(C(=O)O)cc21 |
| 241 to 243 | Cc1ccn2c(=O)c(C(=O)O)cnc2c1 |
| 123 to 125 | NC(=O)c1cc(=NCC2CCCO2)cc[nH]1 (stereo not given) |
| 162 to 164 | O=C(O)CS(=O)(=O)c1ccc([N+](=O)[O-])cc1 |
| 214 to 216 | Nc1nonc1C(=O)O |
| 246 to 248 | O=C(O)CN1C(=O)Cc2ccccc2C1=O |
| 96 to 98 | Nc1onc(C2CCC2)c1-c1ccc2c(c1)OCO2 |
| 149 to 151 | O=C(Nc1ccc(S(=O)(=O)Cl)cc1)c1ccc(F)cc1 |
| 244 to 246 | O=C(O)CCCc1ccc2[nH]c(=O)[nH]c2c1 |
| 172 to 174 | CCc1cc(=O)[nH]c(-c2ccncc2)n1 |
| 109 to 111 | CCOC(=O)c1c(Cl)nc2ccccc2c1C |
| 85 to 87 | CC(C)N1C(=O)CNCC1(C)C |
| 89 to 91 | CC(=O)Nc1ccc(S(=O)(=O)Cl)cc1[N+](=O)[O-] |
| 46 to 48 | O=C(CCc1ccccc1Cl)c1ccccc1 |
| 180 to 181 | Cc1ccc(NC(=O)CCl)cc1Br |
| 175 to 177 | O=C(O)C1CCCN1C(=O)NC1CCCCC1 (stereo not given) |
| 201 to 203 | Nc1nc(CCl)nc2oc(-c3ccccc3)c(-c3ccccc3)c12 |
| 241 to 243 | Cc1nnc(-c2cccc(C(=O)O)c2)o1 |

| melting point [°C] | SMILES |
| --- | --- |
| 60 to 62 | N#CCn1cc(Br)cn1 |
| 194 to 196 | Cc1ncc(C=CC(=O)O)s1 |
| 190 to 192 | Cc1cc(O)nc(C2CC2)n1 |
| 135 to 139 | O=C(O)CCNC(=O)c1ccco1 |
| 236 to 238 | O=C1Nc2cc(F)c([N+](=O)[O-])cc2C1=O |
| 178 to 180 | CCc1ccc2cc(C(=O)O)[nH]c2c1 |
| 68 to 70 | Cc1cccc(Oc2ccc(N)cn2)c1C |
| 170 to 172 | NCCNS(=O)(=O)c1cc(Br)ccc1Br |
| 118 to 120 | C=CCn1c(N)c(C(=O)OCC)sc1=S |
| 134 to 136 | Cc1ccnc(NC(=O)C2CCNCC2)c1 |
| 67 to 69 | Cc1c(N2CCOC2=O)cccc1[N+](=O)[O-] |
| 163 to 165 | Cc1cccc(C)c1NC(=O)C(=O)O |
| 97 to 99 | CCc1nn2c(=O)cc(CCl)nc2s1 |
| 151 to 153 | Cn1c(S)nnc1C1CCS(=O)(=O)C1 (stereo not given) |
| 155 to 157 | Cc1ccc(OCCC(=O)O)cc1C |
| 182 to 184 | CC(N)=NS(=O)(=O)c1cc(Br)ccc1Br |
| 131 to 133 | CS(=O)(=O)c1ccc(C(=O)c2ccccc2)cc1 |
| 85 to 87 | N#Cc1ccc(OCC2CO2)c([N+](=O)[O-])c1 (stereo not given) |
| 248 to 250 | O=C1CCC(=O)N(c2ccc(C(=O)O)cc2)N1 |
| 215 to 217 | O=C(Nc1ccc(O)cc1)c1ccccc1 |
| 100 to 102 | Cc1cc(C=O)c(C)n1-c1ccc(F)cc1 |
| 131 to 133 | O=C(O)C1CCN(C(=O)N2CCOCC2)CC1 |
| 132 to 134 | Cn1cnnc1S(C)(=O)=O |

| melting point [°C] | SMILES |
| --- | --- |
| 132 to 134 | O=C(NC1CCCCC1)c1cccnc1Cl |
| 179 to 181 | O=S(=O)(c1ccc(S)nc1)N1CCCC1 |
| 259 to 261 | O=C1CNc2ccncc2N1 |
| 196 to 198 | CS(=O)(=O)c1ccc(F)c(S(C)(=O)=O)c1 |
| 134 to 136 | O=C(O)C1CCCCN1C(=O)c1ccc(Br)c(F)c1 (stereo not given) |
| 135 to 137 | O=C1CC2(CCSC2)C(=O)N1 (stereo not given) |
| 205 to 207 | O=C(O)c1cccc(NS(=O)(=O)c2ccc3ccccc3c2)c1 |
| 111 to 113 | COc1ccc(CCC(=O)O)cc1F |
| 254 to 256 | COc1ccc(CNc2ccc3[nH]c(=O)[nH]c3c2)cc1 |
| 127 to 129 | Cc1cc(C)cc(Nc2nnc(SC(C)C(=O)O)s2)c1 (stereo not given) |
| 277 to 279 | CC(=O)N1CCN(S(=O)(=O)c2ccc(C(=O)O)cc2)CC1 |
| 144 to 146 | CC(=O)c1ccc(C)c(S(N)(=O)=O)c1 |
| 109 to 111 | Cc1cccc(OCC(=O)NN)c1 |
| 198 to 200 | O=C(O)CNC(=O)CNS(=O)(=O)Cc1ccc(F)cc1 |
| 58 to 60 | Cc1cnc(C#N)c(C)c1 |
| 131 to 133 | CCC(=O)c1ccc(OCC(=O)O)cc1 |
| 131 to 133 | CC1(C)NC(=O)c2ccccc2O1 |
| 299 to 301 | Cc1cc(Br)cc2c(O)c(C(=O)O)cnc12 |
| 84 to 86 | OC(CC1COCCN1)c1ccco1 (stereo not given) |
| 110 to 112 | CS(=O)(=O)NCCc1ccc(C(=O)CCl)s1 |
| 102 to 104 | CC(C)(C)OC(=O)N1CCC(OCC(=O)O)CC1 |
| 89 to 91 | NCc1cccc(OCC(N)=O)c1 |
| 60 to 64 | Cc1ccc(C2NCC(CCl)O2)cc1 (stereo not given) |

| melting point [°C] | SMILES |
| --- | --- |
| 137 to 139 | CNc1cc(C(=O)OC)ccc1[N+](=O)[O-] |
| 57 to 59 | CS(=O)CCC(=O)O (stereo not given) |
| 148 to 150 | CC(C)(C)OC(=O)NCCNS(=O)(=O)c1cccc(N)c1 |
| 201 to 203 | Cc1nnnn1C(=Cc1ccccc1)C(=O)O |
| 103 to 105 | O=C(O)CCCSc1nc2ccccc2s1 |
| 153 to 155 | Cc1n[nH]c(C)c1SCC(=O)O |
| 235 to 237 | O=C(O)c1cc(-c2ccccc2)nc2cccc(Br)c12 |
| 106 to 108 | Nc1ccc(S(=O)(=O)CCO)cc1 |
| 140 to 142 | O=C(Nc1cccnc1)OCC(F)(F)F |
| 132 to 134 | O=C(O)c1csc(CCc2ccccc2)n1 |
| 239 to 241 | Nc1ncnc2sc3c(c12)CCCC3 |
| 65 to 67 | Cc1cc(Cl)c(C#N)c(C)n1 |
| 332 to 334 | O=c1c(Br)c[nH]cc1[N+](=O)[O-] |
| 141 to 143 | Cc1cc(C)c2ncc(C#N)c(Cl)c2c1 |
| 103 to 105 | Nc1cc(-c2cccc(F)c2)no1 |
| 168 to 170 | CNS(=O)(=O)C1CCNCC1 |
| 145 to 147 | CN(C1CCCCC1)S(=O)(=O)c1cccc(C(=O)O)c1 |
| 110 to 112 | Cc1ccc(-n2nnnc2S)cc1C |
| 128 to 130 | Nc1cccc(C(=O)N2CCC(O)CC2)c1 |
| 319 to 321 | N#Cc1nnc2ccccc2c1N |
| 137 to 139 | Nc1cc(-c2cccc([N+](=O)[O-])c2)n[nH]1 |
| 254 to 256 | O=C1COc2ncccc2N1 |
| 89 to 91 | NCc1ccc(-c2ccc3c(c2)CCCO3)cc1 |

| melting point [°C] | SMILES |
| --- | --- |
| 220 to 222 | O=C(O)c1cccc(S(=O)(=O)NC2CCOC2=O)c1 (stereo not given) |
| 176 to 178 | NNC(=O)Cn1ccc2ccccc21 |
| 71 to 73 | N#CCn1cc(N)cn1 |
| 258 to 260 | Nc1nncc(-c2ccc(Br)cc2)n1 |
| 106 to 108 | CC(C)n1cccc1C(=O)O |
| 214 to 216 | Cc1oncc1C(=O)Nc1ccc(C(=O)O)c(O)c1 |
| 146 to 148 | NS(=O)(=O)c1ccc2c(c1)COC2 |
| 176 to 178 | O=C1CCc2ccc(Br)cc2N1 |
| 121 to 123 | O=S(=O)(Cl)c1cccc2ncccc12 |
| 143 to 145 | Cc1cc2ncn(Cc3ccc(Cl)cc3)c2cc1C |
| 125 to 127 | COc1ccc(N)cc1NS(C)(=O)=O |
| 49 to 53 | CS(=O)(=O)c1ccccc1F |
| 113 to 115 | O=C(O)CSC(O)C(=O)c1ccccc1 (stereo not given) |
| 169 to 171 | C/C(=C\C(=O)O)C12CC3CC(CC(C3)C1)C2 |
| 139 to 141 | N#Cc1nc2ccccc2cc1Br |
| 64 to 66 | CN1CCCc2ccc(S(=O)(=O)Cl)cc21 |
| 54 to 56 | COC(=O)c1sc(Cl)nc1Cl |
| 126 to 128 | Cc1ccc(-n2cccc2)c(C(=O)O)c1 |
| 88 to 90 | COc1ccc(-c2cc(CBr)on2)cc1 |
| 104 to 106 | COC(=O)COc1ccc(N)c(C)c1 |
| 133 to 135 | COc1ccc(CNC(=O)CCl)cc1C(=O)O |
| 105 to 107 | O=Cc1cc(Cl)cc([N+](=O)[O-])c1O |

| SMILES | melting point [°C] |
| --- | --- |
| CS(=O)(=O)c1cc([N+](=O)[O-])c(O)c([N+](=O)[O-])c1 | 221 to 223 |
| NC(Cc1cccnc1)=NO | 149 to 151 |
| BrCc1ccc2c(c1)COC2 | 49 to 51 |
| COc1cccc2[nH]cc(CCN)c12 | 119 to 121 |
| CC(=O)NC(=O)CCl | 113 to 115 |
| Fc1ccc2c(C3=CCNCC3)c[nH]c2c1 | 173 to 175 |
| CC(C)C(C)(C#N)NC(=O)CCl (stereo not given) | 71 to 73 |
| ClCc1cccc(Cl)n1 | 42 to 44 |
